Source: paper PMC8273886 (Journal of Medicinal Chemistry, 2021)
Where “and” joins values, the source holds several entries; their conditions need not be identical. Identical values can stand only once. Entries after “also recorded” stand apart in the source; their conditions may differ. Bridge positions count the residues as written; N and C are the ends. Square brackets hold non-standard residues; d marks the D form. Peptide text beside a SMILES is read from it.

Tests used:
[1] = biological target: T1, mouse KOR (Mus musculus, UniProt P33534); assay: Functional cAMP assay; assay type: cell-based; settings: for Emax: normalized to dyn A 1–13 = 100%, read-out: efficacy cAMP Emax ± SD; for KOR activation in cAMP assay (in words): HEK293 cells stably expressing mouse KOR
[2] = biological target: T1, mouse KOR; assay: Radioligand competition binding assay ([3H]-diprenorphine displacement); settings: 1 nM [3H]-diprenorphine, HEK293 cell membranes stably expressing mouse KOR; read-out: affinity Ki ± SD
[3] = tested on: motor coordination in mice; settings: mouse, in vivo, ip, 5 mg/kg
[4] = biological target: T2, mouse KOR-EGFP and β-arrestin-2-nano-luciferase (Mus musculus, UniProt P33534); assay: BRET β-arrestin-2 recruitment assay; assay type: cell-based; settings: normalized to maximum recruitment of dyn A 1–13
T2 construct: expressed in transfected cells; host or cells: HEK293 (transient, jetPRIME)

[5] = Peptide stability in simulated gastric fluid; assay type: in vitro ADME; settings: SGF pH 1.2 with pepsin, 37 °C
[6] = tested on: colonic nociceptors from CVH mice; assay: Ex vivo assessment of colonic nociceptor mechanosensitivity; set-up: species or system mouse
Procedure: Single-unit extracellular recordings from splanchnic colonic afferent nerves were performed as previously described.[42],[43],[45],[46],[78] […] The tissue was transferred to ice-cold Krebs solution, and after further dissection, the distal colon was opened longitudinally and pinned flat with its mucosal side up in a specialized, SYLGARD 184-lined (Dow Corning Corp., Midland, MI) organ bath consisting of two adjacent, clear acrylic compartments (Danz Instrument Service, Adelaide, South Australia, Australia). The neurovascular bundle containing the splanchnic nerve was extended from the tissue compartment and laid onto a mirror in the recording compartment. A movable wall with a small “mouse hole” was lowered into position to allow passage of the nerves, and the recording chamber was filled with paraffin oil. The colonic compartment was superfused with a modified Krebs solution (117.9 mM NaCl, 4.7 mM KCl, 25 mM NaHCO3, 1.3 mM NaH2PO4, 1.2 mM MgSO4(H2O)7, 2.5 mM CaCl2, and 11.1 mM D-glucose) and gassed with carbogen (95% O2 and 5% CO2) at a temperature of 34 °C. Smooth muscle activity and endogenous prostaglandins were suppressed by the addition of the L-type calcium channel antagonist nifedipine (1 μM) and prostaglandin synthesis inhibitor indomethacin (3 μM), respectively. […]

Compound	Emax [1] [%]	Ki [2] [µM]	other results
CC[C@H](C)[C@@H]1NC(=O)[C@H](CCCNC(=N)N)NC(=O)[C@H](CCCNC(=N)N)NC(=O)[C@H](CC(C)C)NC(=O)[C@H](Cc2ccccc2)NC(=O)CNC(=O)CNC(=O)[C@H](Cc2ccc(O)cc2)NC(=O)[C@@H]2CSSC[C@H](NC1=O)C(=O)N[C@@H](Cc1ccccc1)C(=O)N1CCC[C@H]1C(=O)N[C@@H](CC(=O)O)C(=O)NCC(=O)N[C@@H](CCCNC(=N)N)C(=O)N2 [helianorphin-3]	85.1 ± 1.8	–	–
CC[C@H](C)[C@@H]1NC(=O)[C@H](CCCNC(=N)N)NC(=O)[C@H](CCCNC(=N)N)NC(=O)[C@H](CC(C)C)NC(=O)[C@H](Cc2ccccc2)NC(=O)CNC(=O)CNC(=O)[C@H](Cc2ccc(O)cc2)NC(=O)[C@@H]2CSSC[C@H](NC(=O)[C@H](CCCCN)NC(=O)[C@H](CC(C)C)NC(=O)[C@H](CCCCN)NC(=O)[C@@H]3CCCN3C(=O)[C@H](CCCNC(=N)N)NC1=O)C(=O)N[C@@H](Cc1ccccc1)C(=O)N1CCC[C@H]1C(=O)N[C@@H](CC(=O)O)C(=O)NCC(=O)N[C@@H](CCCNC(=N)N)C(=O)N2 [helianorphin-1]	106 ± 8.4	–	KOR activation in cAMP assay (in words) [1]: fully activated the receptor
CC[C@H](C)[C@@H]1NC(=O)[C@@H]2CCCN2C(=O)[C@@H]2CCCN2C(=O)[C@H]([C@@H](C)CC)NC(=O)[C@H](CO)NC(=O)[C@H](C)NC(=O)[C@H]([C@@H](C)O)NC(=O)[C@@H]2CSSC[C@H](NC1=O)C(=O)N[C@@H](Cc1ccc(O)cc1)C(=O)NCC(=O)NCC(=O)N[C@@H](Cc1ccccc1)C(=O)N[C@@H](CC(C)C)C(=O)N[C@@H](CCCNC(=N)N)C(=O)N2 [helianorphin-7] (cyclo(ASIPPICYGGFLRCT); disulfide 7-14)	–	> 10	–
CC(C)C[C@@H]1NC(=O)[C@H](Cc2ccccc2)NC(=O)CNC(=O)CNC(=O)[C@H](Cc2ccc(O)cc2)NC(=O)[C@H]([C@@H](C)O)NC(=O)[C@@H]2CSSC[C@H](NC(=O)[C@H](CCCNC(=N)N)NC1=O)C(=O)N[C@@H](Cc1ccccc1)C(=O)N1CCC[C@H]1C(=O)N[C@@H](CC(=O)O)C(=O)NCC(=O)N[C@@H](CCCNC(=N)N)C(=O)N2 [helianorphin-6] (cyclo(CFPDGRCTYGGFLR); disulfide 1-7)	–	> 10	–
CC[C@H](C)[C@@H]1NC(=O)[C@@H]2CSSC[C@H](NC(=O)[C@H](CCCCN)NC(=O)[C@H](CC(C)C)NC(=O)[C@H](CCCCN)NC(=O)[C@@H]3CCCN3C(=O)[C@H](CCCNC(=N)N)NC1=O)C(=O)N[C@@H](Cc1ccc(O)cc1)C(=O)NCC(=O)NCC(=O)N[C@@H](Cc1ccccc1)C(=O)N[C@@H](CC(C)C)C(=O)N[C@@H](CCCNC(=N)N)C(=O)N[C@@H](CCCNC(=N)N)C(=O)N2 [helianorphin-19] (cyclo(CIRPKLKCYGGFLRR); disulfide 1-8)	108 ± 11	–	rotarod performance (latency to fall) [3]: did not impair rotarod performance; β-arrestin-2 recruitment Emax [4]: 41.1 ± 3.7% and 41%
CC[C@H](C)[C@@H]1NC(=O)[C@H](CCCNC(=N)N)NC(=O)[C@H](CCCNC(=N)N)NC(=O)[C@H](CC(C)C)NC(=O)[C@H](Cc2ccccc2)NC(=O)CNC(=O)CNC(=O)[C@H](Cc2ccc(O)cc2)NC(=O)[C@@H]2CSSC[C@H](NC1=O)C(=O)N[C@@H]([C@@H](C)O)C(=O)N[C@@H](CCCCN)C(=O)N[C@@H](CO)C(=O)N[C@@H]([C@@H](C)CC)C(=O)N1CCC[C@H]1C(=O)N1CCC[C@H]1C(=O)N[C@@H]([C@@H](C)CC)C(=O)N2 [helianorphin-4] (cyclo(CTKSIPPICYGGFLRRI); disulfide 1-9)	87.8 ± 33	–	–
CC[C@H](C)[C@@H]1NC(=O)[C@@H]2CCCN2C(=O)[C@@H](CCCCN)NC(=O)[C@@H](CC(C)C)NC(=O)[C@@H](Cc2ccccc2)NC(=O)[C@@H](Cc2ccccc2)NC(=O)[C@H]([C@@H](C)O)NC(=O)[C@@H]2CSSC[C@H](NC1=O)C(=O)N[C@@H](Cc1ccccc1)C(=O)N1CCC[C@H]1C(=O)N[C@@H](CC(=O)O)C(=O)NCC(=O)N[C@@H](CCCNC(=N)N)C(=O)N2 [helianorphin-10] (cyclo(CFPDGRCT[dF][dF][dL][dK]PI); disulfide 1-7)	–	> 10	–
CCCC[C@H]1NC(=O)[C@@H](Cc2ccccc2)NC(=O)[C@@H](Cc2ccccc2)NC(=O)[C@H]([C@@H](C)O)NC(=O)[C@@H]2CSSC[C@H](NC(=O)[C@H]([C@@H](C)CC)NC(=O)[C@@H]3CCCN3C(=O)[C@@H](CCCNC(=N)N)NC1=O)C(=O)N[C@@H](Cc1ccccc1)C(=O)N1CCC[C@H]1C(=O)N[C@@H](CC(=O)O)C(=O)NCC(=O)N[C@@H](CCCNC(=N)N)C(=O)N2 [helianorphin-12]	117 ± 12	–	KOR activation in cAMP assay (in words) [1]: fully activates the KOR
CC[C@H](C)[C@H](NC(=O)[C@H](CCCN=C(N)N)NC(=O)[C@H](CCCN=C(N)N)NC(=O)[C@H](CC(C)C)NC(=O)[C@H](Cc1ccccc1)NC(=O)CNC(=O)CNC(=O)[C@@H](N)Cc1ccc(O)cc1)C(=O)N[C@@H](CCCN=C(N)N)C(=O)N1CCC[C@H]1C(=O)N[C@@H](CCCCN)C(=O)N[C@@H](CC(C)C)C(=O)N[C@@H](CCCCN)C(N)=O [dyn A 1–13]	–	–	degradation in simulated gastric fluid (in words) [5]: fully degraded after 15 min
Oc1ccc2c3c1O[C@H]1c4[nH]c5c(c4C[C@@]4(O)[C@@H](C2)N(CC2CC2)CC[C@]314)C[C@@]1(O)[C@H]2Cc3ccc(O)c4c3[C@@]1(CCN2CC1CC1)[C@H]5O4 [nor-BNI, norbinaltorphimine]	–	–	effect on helianorphin-19-induced inhibition of colonic nociceptor mechanosensitivity ([6]; 0.1 μM nor-BNI plus 1 μM helianorphin-19): prevented helianorphin-19-induced inhibition of colonic nociceptor mechanosensitivity; also recorded: did block helianorphin-19 (1 μM)-induced inhibition of colonic nociceptor action potential firing; colonic nociceptor mechanosensitivity, antagonist alone ([6]; 0.1 μM, 5 min pre-incubation): did not affect CVH colonic nociceptor responses to mechanical stimuli; also recorded: did not affect nociceptor mechanosensitivity
CC[C@H](C)[C@@H]1NC(=O)[C@H](CCCNC(=N)N)NC(=O)[C@H](CCCNC(=N)N)NC(=O)[C@H](CC(C)C)NC(=O)[C@H](Cc2ccccc2)NC(=O)CNC(=O)CNC(=O)[C@H](Cc2ccc(O)cc2)NC(=O)[C@@H]2CSSC[C@H](NC(=O)[C@H](CCCCN)NC(=O)[C@H](CC(C)C)NC(=O)[C@H](CCCCN)NC(=O)[C@@H]3CCCN3C(=O)[C@H](CCCNC(=N)N)NC1=O)C(=O)N[C@@H]([C@@H](C)O)C(=O)N[C@@H](CCCCN)C(=O)N[C@@H](CO)C(=O)N[C@@H]([C@@H](C)CC)C(=O)N1CCC[C@H]1C(=O)N1CCC[C@H]1C(=O)N[C@@H]([C@@H](C)CC)C(=O)N2 [helianorphin-2] (cyclo(CTKSIPPICYGGFLRRIRPKLK); disulfide 1-9)	102 ± 10	–	KOR activation in cAMP assay (in words) [1]: fully activated the receptor
CC[C@H](C)[C@@H]1NC(=O)[C@H](CCCNC(=N)N)NC(=O)[C@H](CC(C)C)NC(=O)[C@H](Cc2ccccc2)NC(=O)CNC(=O)CNC(=O)[C@H](Cc2ccc(O)cc2)NC(=O)[C@@H]2CSSC[C@H](NC1=O)C(=O)N[C@@H](Cc1ccccc1)C(=O)N1CCC[C@H]1C(=O)N[C@@H](CC(=O)O)C(=O)NCC(=O)N[C@@H](CCCNC(=N)N)C(=O)N2 [helianorphin-5] (cyclo(CFPDGRCYGGFLRI); disulfide 1-7)	–	> 10	–
